Each structure is given as a SMILES string. Where “and” joins values, the source holds several entries; their conditions need not be identical. Equal values may be shown once. Inconclusive results and toxic doses are left out.

For this test, the system named is L1210 leukemia ip in BDF1 mice, survival T/C. Description: NCI In Vivo Anticancer Drug Screen. Data for tumor model L1210 Leukemia (intraperitoneal) in B6D2F1 (BDF1) mice. The conditions noted are these: endpoint: mean survival time, higher = longer survival. The essentials:
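Survival endpoint. Drug-treated group vs vehicle group, expressed as T divided by C. Tumor passaged by transplantation.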

[1] abbreviates: dose: 75.0 mg/kg/injection, schedule: Q01DX001 (ip), vehicle: saline.
The mark [2] stands for this setting: dose: 150.0 mg/kg/injection, schedule: Q01DX001 (ip), vehicle: saline.
Setting [3] is: dose: 300.0 mg/kg/injection, schedule: Q01DX001 (ip), vehicle: saline.
[4] abbreviates: dose: 100.0 mg/kg/injection, schedule: Q01DX009 (ip), vehicle: Klucel (hydroxypropylcellulose) (HPC).
The mark [5] stands for this setting: dose: 100.0 mg/kg/injection, schedule: Q04DX003 (ip), vehicle: Klucel (hydroxypropylcellulose) (HPC).
Where [6] appears, read: dose: 200.0 mg/kg/injection, schedule: Q01DX009 (ip), vehicle: Klucel (hydroxypropylcellulose) (HPC).
The mark [7] stands for this setting: dose: 200.0 mg/kg/injection, schedule: Q04DX003 (ip), vehicle: Klucel (hydroxypropylcellulose) (HPC).
Setting [8] is: dose: 400.0 mg/kg/injection, schedule: Q01DX009 (ip), vehicle: Klucel (hydroxypropylcellulose) (HPC).
Where [9] appears, read: dose: 400.0 mg/kg/injection, schedule: Q04DX003 (ip), vehicle: Klucel (hydroxypropylcellulose) (HPC).
Where [10] appears, read: dose: 100.0 mg/kg/injection, schedule: Q01DX001 (ip), vehicle: carboxymethylcellulose (CMC).
The mark [11] stands for this setting: dose: 200.0 mg/kg/injection, schedule: Q01DX001 (ip), vehicle: carboxymethylcellulose (CMC).
[12] abbreviates: dose: 400.0 mg/kg/injection, schedule: Q01DX001 (ip), vehicle: carboxymethylcellulose (CMC).
The mark [13] stands for this setting: dose: 20.0 mg/kg/injection, schedule: Q01DX001 (ip), vehicle: saline.
[14] abbreviates: dose: 100.0 mg/kg/injection, schedule: Q01DX001 (ip), vehicle: Klucel (hydroxypropylcellulose) (HPC).
[15] abbreviates: dose: 200.0 mg/kg/injection, schedule: Q01DX001 (ip), vehicle: Klucel (hydroxypropylcellulose) (HPC).
[16] abbreviates: dose: 100.0 mg/kg/injection, schedule: Q01DX009 (ip), vehicle: saline.
The mark [17] stands for this setting: dose: 100.0 mg/kg/injection, schedule: Q04DX003 (ip), vehicle: saline.
Where [18] appears, read: dose: 200.0 mg/kg/injection, schedule: Q01DX009 (ip), vehicle: saline.
Where [19] appears, read: dose: 200.0 mg/kg/injection, schedule: Q04DX003 (ip), vehicle: saline.
Setting [20] is: dose: 400.0 mg/kg/injection, schedule: Q01DX009 (ip), vehicle: saline.
[21] abbreviates: dose: 400.0 mg/kg/injection, schedule: Q04DX003 (ip), vehicle: saline.

`CCOC(=O)c1ccc2ccccc2[n+]1C`: the T/C under setting [1] is 89 % of control, the T/C under setting [2] is 94 % of control and the T/C under setting [3] is 91 % of control.
In the case of `Cc1ccc(NC(=O)c2ccc(Cl)cc2)cc1`, the T/C by setting is: under setting [4], 95 % of control; under setting [5], 97 % of control; under setting [6], 99 % of control; under setting [7], 103 % of control; under setting [8], 90 % of control; under setting [9], 103 % of control.
As to `CN(Cc1cnc2nc(N)nc(N)c2n1)c1ccc(C(=O)NC(CCC(=O)O)C(=O)O)cc1I` (configuration not stated), the T/C (dose: 2.5 mg/kg/injection, schedule: Q01DX009 (ip), vehicle: sodium bicarbonate) was 176 % of control; the T/C (dose: 5.0 mg/kg/injection, schedule: Q01DX009 (ip), vehicle: sodium bicarbonate) was 175 % of control; the T/C (dose: 10.0 mg/kg/injection, schedule: Q01DX009 (ip), vehicle: sodium bicarbonate) is 104 % of control.
Consider `CC/C(=N\NS(=O)(=O)c1ccc(C)cc1)C(C)C`, for which the T/C under setting [1] was 95 % of control; the T/C (dose: 75.0 mg/kg/injection, schedule: Q04DX003 (ip), vehicle: saline) was 91 % of control; the T/C under setting [2] was 95 % of control; the T/C (dose: 150.0 mg/kg/injection, schedule: Q04DX003 (ip), vehicle: saline) was 100 % of control; the T/C under setting [3] was 97 % of control; the T/C (dose: 300.0 mg/kg/injection, schedule: Q04DX003 (ip), vehicle: saline) was 96 % of control.
For `Brc1cc(Br)c2c(c1)-c1ccccc1C2`, the T/C under setting [10] is 96 % of control, the T/C under setting [11] was 113 % of control and the T/C under setting [12] was 96 % of control.
Turning to `CCOc1ccc(NC(=O)Oc2cc(C)c(Cl)cc2C(C)C)cc1`, the T/C was 90 % of control (dose: 100.0 mg/kg/injection, schedule: Q04DX002 (ip), vehicle: Klucel (hydroxypropylcellulose) (HPC)); 110 % of control (dose: 200.0 mg/kg/injection, schedule: Q04DX002 (ip), vehicle: Klucel (hydroxypropylcellulose) (HPC)); 100 % of control (dose: 400.0 mg/kg/injection, schedule: Q04DX002 (ip), vehicle: Klucel (hydroxypropylcellulose) (HPC)).
With `c1ccc(-c2nc(-c3ccccn3)nc(-c3ccccn3)n2)nc1`, the T/C is 107 % of control (dose: 5.0 mg/kg/injection, schedule: Q01DX001 (ip), vehicle: saline); 96 % of control (dose: 10.0 mg/kg/injection, schedule: Q01DX001 (ip), vehicle: saline); 100 % of control under setting [13]; 93 % of control (dose: 40.0 mg/kg/injection, schedule: Q01DX001 (ip), vehicle: saline); 91 % of control (dose: 80.0 mg/kg/injection, schedule: Q01DX001 (ip), vehicle: saline).
For the molecule `CN(C)c1ccc(C=O)cc1Br`, the T/C was 98 % of control under setting [4]; 100 % of control under setting [5]; 96 % of control under setting [6]; 103 % of control under setting [7]; 96 % of control under setting [8]; 101 % of control under setting [9].
In the case of `O=c1[nH]c2cc(Cl)cc([N+](=O)[O-])c2c2c(Cl)cc(Cl)cc12`, the T/C runs as follows: under setting [4], 100 % of control; under setting [5], 95 % of control; under setting [6], 101 % of control; under setting [7], 97 % of control; under setting [8], 104 % of control; under setting [9], 92 % of control.
Take `C=CCO[Si](C=C)(OCC=C)OCC=C`: the T/C is, setting by setting: (dose: 75.0 mg/kg/injection, schedule: Q01DX001 (ip), vehicle: other) 116 % of control; (dose: 150.0 mg/kg/injection, schedule: Q01DX001 (ip), vehicle: other) 95 % of control; (dose: 300.0 mg/kg/injection, schedule: Q01DX001 (ip), vehicle: other) 94 % of control.
For `CC(C)(C)C1=CC(=O)C(N2C3C4CCC(C4)C32)=C(N2C3C4CCC(C4)C32)C1=O` (configuration not stated), the T/C runs as follows: under setting [14], 96 % of control; under setting [15], 94 % of control; (dose: 400.0 mg/kg/injection, schedule: Q01DX001 (ip), vehicle: Klucel (hydroxypropylcellulose) (HPC)) 87 % of control.
For `CN1CCC(OC(=O)C(F)(c2ccccc2)c2ccccc2)CC1`, the T/C under setting [13] is 98 % of control.
As for `CC(C)c1nc2c(=O)[nH]cnc2o1`, the T/C was 105 % of control (dose: 25.0 mg/kg/injection, schedule: Q01DX005 (ip), vehicle: saline); 107 % of control (dose: 50.0 mg/kg/injection, schedule: Q01DX005 (ip), vehicle: saline); 95 % of control and 102 % of control (dose: 100.0 mg/kg/injection, schedule: Q01DX005 (ip), vehicle: saline); 100 % of control (dose: 200.0 mg/kg/injection, schedule: Q01DX005 (ip), vehicle: saline).
`O=C(Nc1ccc(S(=O)(=O)F)cc1)c1ccc(C(=O)Nc2ccc(S(=O)(=O)F)cc2)cc1`: the T/C reads like this: under setting [10], 102 % of control; under setting [11], 101 % of control; under setting [12], 96 % of control.
Consider `CC(=O)NC1=C(S(=O)(=O)O)c2ccccc2C1`, for which the T/C was 105 % of control (dose: 100.0 mg/kg/injection, schedule: Q01DX001 (ip), vehicle: saline); 98 % of control under setting [16]; 94 % of control and 110 % of control and 118 % of control (dose: 100.0 mg/kg/injection, schedule: Q04DX002 (ip), vehicle: saline); 104 % of control under setting [17]; 115 % of control (dose: 200.0 mg/kg/injection, schedule: Q01DX001 (ip), vehicle: saline); 98 % of control and 104 % of control under setting [18]. In addition, the T/C (dose: 200.0 mg/kg/injection, schedule: Q04DX002 (ip), vehicle: saline) was 94 % of control and 103 % of control; the T/C under setting [19] was 96 % of control; the T/C (dose: 400.0 mg/kg/injection, schedule: Q01DX001 (ip), vehicle: saline) is 108 % of control; the T/C under setting [20] was 105 % of control and 106 % of control; the T/C (dose: 400.0 mg/kg/injection, schedule: Q04DX002 (ip), vehicle: saline) is 102 % of control and 109 % of control and 88 % of control; the T/C under setting [21] is 102 % of control.
Consider `CC1=C(C)CC2C(=O)OC(=O)C2C1` (configuration not stated), for which the T/C under setting [16] is 98 % of control; the T/C under setting [5] is 106 % of control; the T/C under setting [17] is 98 % of control; the T/C under setting [18] was 102 % of control; the T/C under setting [7] was 95 % of control; the T/C under setting [19] was 105 % of control. The T/C is 98 % of control under setting [20], 98 % of control under setting [9] and 105 % of control under setting [21].
As for `O=C(c1ccccc1)c1ccc(N2CCOCC2)cc1`, the T/C (dose: 100.0 mg/kg/injection, schedule: Q01DX001 (ip), vehicle: other) was 96 % of control; the T/C (dose: 200.0 mg/kg/injection, schedule: Q01DX001 (ip), vehicle: other) is 98 % of control; the T/C (dose: 400.0 mg/kg/injection, schedule: Q01DX001 (ip), vehicle: other) was 90 % of control.
For the molecule `CCCCC(I)C(C)(C)[n+]1ccccc1` (configuration not stated), the T/C was 119 % of control (dose: 12.5 mg/kg/injection, schedule: Q01DX009 (ip), vehicle: saline with Tween-80); 100 % of control (dose: 12.5 mg/kg/injection, schedule: Q04DX003 (ip), vehicle: saline with Tween-80); 106 % of control (dose: 25.0 mg/kg/injection, schedule: Q01DX009 (ip), vehicle: saline with Tween-80); 96 % of control (dose: 25.0 mg/kg/injection, schedule: Q04DX003 (ip), vehicle: saline with Tween-80); 101 % of control (dose: 50.0 mg/kg/injection, schedule: Q01DX009 (ip), vehicle: saline with Tween-80); 100 % of control (dose: 50.0 mg/kg/injection, schedule: Q04DX003 (ip), vehicle: saline with Tween-80).
Take `Cc1ccc(NC(=O)CCc2ccc(N3C(N)=NC(N)=NC3(C)C)cc2)cc1S(=O)(=O)F`: the T/C runs as follows: under setting [14], 90 % of control; under setting [15], 108 % of control.

The values are drawn from PubChem BioAssay AID248 (DTP/NCI, 2004).
